Patent US20200172483A1, “HETEROCYCLIC SMALL MOLECULE MODULATORS OF HUMAN STING” (Curadev Pharma Limited, priority 2017, published 2020)
pEC50: −log10 of the molar value.

What was measured:
hSTING (H232) = target: T1, hSTING (H232) (Homo sapiens, UniProt Q86WV6); experiment: Luciferase reporter assay in HEK293T-hSTING-Luciferase cells (H232/REF polymorph); assay type: cell-based; details: EC50 range
T1 construct: host or cells: HEK293T
Text: (§1) • a) Stable STING expressing cells—Stable HEK293T STING-expressing cell lines were generated using plasmids purchased from Invivogen, CA, USA, that contain STING cDNA cloned into the pUNO-1 vector under hEF1-HTLV promoter and containing the Blasticidin selection cassette. The plasmids hSTING (R232), hSTING (H232), hSTING (HAQ) were directly procured from Invivogen while hSTING (AQ) and hSTING (Q) were derived from hSTING (HAQ) and hSTING (R232) plasmids respectively by using a PCR based site directed mutagenesis method. These vectors were individually transfected into HEK293T cells using Lipofectamine (Invitrogen) and transfected cells were selected under Blasticidin selection. These transfected cells were further subjected to clonal selection using the limiting dilution method to obtain clonally pure populations of HEK cells transfected with each of the above mentioned human STING variants. Only those clones were selected in which ligand independent activation of STING was minimal. • b) Stable Luciferase reporter gene expressing cells—Stable HEK293T Luciferase reporter gene expressing cell lines were generated using pCDNA4 plasmids under an IRF-inducible promoter. This promoter is comprised of five tandem interferon-stimulated response elements (ISRE) fused to an ISG54 minimal promoter. This vector was transfected into HEK293T cells using Lipofectamine (Invitrogen) and transfected cells were selected under Zeocin selection. These transfected cells were further subjected to clonal selection using the limiting dilution method to obtain clonally pure populations of HEK cells transfected the Luciferase reporter construct. Only those clones were selected in which ligand independent induction of luciferase was minimal.
(§2) 5×10^5 clonally selected HEK293T-hSTING-Luciferase cells were seeded in 384-well plates in growth medium and stimulated with novel compounds. After 20 hr of stimulation supernatant were removed and secretary reporter gene activity were measured using the Quanti-Luc detection system (Invivogen) on a Spectramax i3X luminometer.
(§3) The 5 major polymorphisms of human STING are shown in FIG. 1, with their prevalence in human populations indicated.

IRF pathway = experiment: Reporter gene expression assay for IRF axis in THP1-Dual cells (secreted Lucia luciferase); assay type: cell-based, human; details: Homo sapiens, THP1-Dual, 20 h, 20 hr stimulation, QUANTI-Luc, EC50 range, read-out: THP-IRF activity
Procedure: (§4) THP1-Dual™ cells (Invivogen) were derived from the human THP-1 monocyte cell line by stable integration of two inducible reporter constructs. As a result, THP1-Dual™ cells allow the simultaneous study of the NF-κB pathway, by monitoring the activity of secreted SEAP, and the IRF pathway, by assessing the activity of a secreted luciferase (Lucia). […] THP1-Dual™ cells were seeded in 384-well plates in growth medium and stimulated with novel compounds. After 20 hr of stimulation supernatant were removed and reporter proteins were readily measured in the cell culture supernatant using QUANTI-Blue™ (Invivogen), a SEAP detection reagent, and QUANTI-Luc™ (Invivogen), a luciferase detection reagent on a Spectramax i3X luminometer. EC50 value ranges for exemplary compounds tested in the above assay are given.

WT/R232 STING protein = target: T2, WT/R232 STING protein (Homo sapiens, UniProt Q86WV6, H232R); experiment: Luciferase reporter assay in HEK293T-hSTING-Luciferase cells (R232); assay type: cell-based; details: 20 hr stimulation, EC50 range
T2 construct: host or cells: HEK293T
T2 sequence (Q86WV6 whole entry H232R): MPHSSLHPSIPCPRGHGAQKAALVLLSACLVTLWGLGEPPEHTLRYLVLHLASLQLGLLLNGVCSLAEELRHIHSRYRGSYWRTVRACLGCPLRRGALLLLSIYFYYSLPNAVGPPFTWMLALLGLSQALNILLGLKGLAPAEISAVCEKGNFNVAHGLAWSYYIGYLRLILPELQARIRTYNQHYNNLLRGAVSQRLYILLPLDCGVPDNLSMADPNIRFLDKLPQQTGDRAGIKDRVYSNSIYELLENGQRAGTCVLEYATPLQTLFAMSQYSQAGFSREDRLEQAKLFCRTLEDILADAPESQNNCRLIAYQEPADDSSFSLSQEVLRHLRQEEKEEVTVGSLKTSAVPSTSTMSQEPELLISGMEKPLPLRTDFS
Outline: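 Readout is fold-induction over baseline of secreted luciferase, measured by luminescence after 20 hr compound stimulation. Cells: clonally selected HEK293T stably carrying hSTING (R232) and a luciferase reporter under five tandem ISREs fused to an ISG54 minimal promoter.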

NF-κB pathway = experiment: Reporter gene expression assay for NFκB axis in THP1-Dual cells (secreted SEAP); assay type: cell-based, human; details: Homo sapiens, THP1-Dual, 20 h, 20 hr stimulation, QUANTI-Blue SEAP, EC50 range, read-out: THP-NFKB activity
Procedure: as §4

hSTING (HAQ) = target: T3, hSTING (HAQ) (Homo sapiens, UniProt Q86WV6, G230A/H232R/R293Q/R71H); experiment: Luciferase reporter assay in HEK293T-hSTING-Luciferase cells (HAQ polymorph); assay type: cell-based; details: EC50 range
T3 construct: host or cells: HEK293T
T3 sequence (Q86WV6 whole entry R71H/G230A/H232R/R293Q): as the sequence (Q86WV6 whole entry H232R) above, with R71H, G230A, R293Q counted along it
Text: as §1, §2, §3

T1 sequence (Q86WV6 whole entry): as the sequence (Q86WV6 whole entry H232R) above, with R232H counted along it

Structure (SMILES)	pEC50 (hSTING (H232))	pEC50 (IRF pathway)	pEC50 (WT/R232 STING protein)	pEC50 (NF-κB pathway)	pEC50 (hSTING (HAQ))
CC1(C)C(=O)N(Cc2c(F)cccc2Cl)c2cc(C(=O)NCc3ccccc3F)ccc21 [Example 72, 1-(2-chloro-6-fluorobenzyl)-N-(2-fluorobenzyl)-3,3-dimethyl-2-oxoindoline-6-carboxamide]	5.00 to 6.00	< 5.00	≥ 6.00	5.00 to 6.00	5.00 to 6.00
Cc1cccc(CN2C(=O)C(C)(C)c3ccc(C(=O)NCc4c(F)cc(F)cc4F)cc32)c1F [Example 73, 1-(2-fluoro-3-methylbenzyl)-3,3-dimethyl-2-oxo-N-(2,4,6-trifluorobenzyl)indoline-6-carboxamide]	≥ 6.00	5.00 to 6.00	≥ 6.00	5.00 to 6.00	≥ 6.00
CC1(C)C(=O)N(Cc2c(F)cccc2Cl)c2cc(C(=O)NCc3cc4ccc(F)cc4o3)ccc21 [Example 74, 1-(2-chloro-6-fluorobenzyl)-N-((6-fluorobenzofuran-2-yl)methyl)-3,3-dimethyl-2-oxoindoline-6-carboxamide]	≥ 6.00	5.00 to 6.00	≥ 6.00	5.00 to 6.00	≥ 6.00
CC1(C)C(=O)N(Cc2c(F)cccc2Cl)c2cc(C(=O)NCc3cc4cc(F)ccc4o3)ccc21 [Example 75, 1-(2-chloro-6-fluorobenzyl)-N-((5-fluorobenzofuran-2-yl)methyl)-3,3-dimethyl-2-oxoindoline-6-carboxamide]	≥ 6.00	5.00 to 6.00	≥ 6.00	5.00 to 6.00	≥ 6.00
CC1(C)C(=O)N(Cc2c(F)cccc2C#N)c2cc(C(=O)NCc3c(F)cc(F)cc3F)ccc21 [Example 76, 1-(2-cyano-6-fluorobenzyl)-3,3-dimethyl-2-oxo-N-(2,4,6-trifluorobenzyl)indoline-6-carboxamide]	5.00 to 6.00	< 5.00	5.00 to 6.00	< 5.00	5.00 to 6.00
Cc1cc(CN2C(=O)C(C)(C)c3ccc(C(=O)NCc4c(F)cc(F)cc4F)cc32)nn1C [Example 81, 1-((1,5-dimethyl-1H-pyrazol-3-yl)methyl)-3,3-dimethyl-2-oxo-N-(2,4,6-trifluorobenzyl)indoline-6-carboxamide]	5.00 to 6.00	5.00 to 6.00	5.00 to 6.00	5.00 to 6.00	5.00 to 6.00
Cc1cc(CN2C(=O)C(C)(C)c3ccc(C(=O)NCc4c(F)cc(F)cc4F)cc32)n(C)n1 [Example 82, 1-((1,3-dimethyl-1H-pyrazol-5-yl)methyl)-3,3-dimethyl-2-oxo-N-(2,4,6-trifluorobenzyl)indoline-6-carboxamide]	5.00 to 6.00	5.00 to 6.00	≥ 6.00	5.00 to 6.00	5.00 to 6.00
COc1cc(F)cc(CN2C(=O)C(C)(C)c3ccc(C(=O)NCc4c(F)cc(F)cc4F)cc32)c1 [Example 89, 1-(3-fluoro-5-methoxybenzyl)-3,3-dimethyl-2-oxo-N-(2,4,6-trifluorobenzyl)indoline-6-carboxamide]	≥ 6.00	5.00 to 6.00	≥ 6.00	5.00 to 6.00	≥ 6.00
CC1(C)C(=O)N(Cc2c(F)cccc2Cl)c2cc(C(=O)NCc3ccc4ccoc4c3)ccc21 [Example 90, N-(benzofuran-6-ylmethyl)-1-(2-chloro-6-fluorobenzyl)-3,3-dimethyl-2-oxoindoline-6-carboxamide]	5.00 to 6.00	5.00 to 6.00	≥ 6.00	5.00 to 6.00	5.00 to 6.00
CC1(C#N)C(=O)N(Cc2cc(F)cc(F)c2)c2cc(C(=O)NCc3cc4ccccc4o3)ccc21 (centres unmarked) [Example 92, N-(benzofuran-2-ylmethyl)-3-cyano-1-(3,5-difluorobenzyl)-3-methyl-2-oxoindoline-6-carboxamide]	5.00 to 6.00	< 5.00	5.00 to 6.00	< 5.00	5.00 to 6.00
CC1(C)C(=O)N(Cc2noc3ncccc23)c2cc(C(=O)NCc3c(F)cc(F)cc3F)ccc21 [Example 97, 1-(isoxazolo[5,4-b]pyridin-3-ylmethyl)-3,3-dimethyl-2-oxo-N-(2,4,6-trifluorobenzyl)indoline-6-carboxamide]	5.00 to 6.00	< 5.00	≥ 6.00	< 5.00	5.00 to 6.00
CC1(C)C(=O)N(Cc2noc3ccccc23)c2cc(C(=O)NCc3c(F)cc(F)cc3F)ccc21 [Example 98, 1-(benzo[d]isoxazol-3-ylmethyl)-3,3-dimethyl-2-oxo-N-(2,4,6-trifluorobenzyl)indoline-6-carboxamide]	≥ 6.00	< 5.00	≥ 6.00	< 5.00	5.00 to 6.00
CC1(C)C(=O)N(Cc2coc3ccccc23)c2cc(C(=O)NCc3c(F)cc(F)cc3F)ccc21 [Example 100, 1-(benzofuran-3-ylmethyl)-3,3-dimethyl-2-oxo-N-(2,4,6-trifluorobenzyl)indoline-6-carboxamide]	5.00 to 6.00	< 5.00	5.00 to 6.00	< 5.00	5.00 to 6.00
COc1cccc(F)c1CN1C(=O)C(C)(C)c2ccc(C(=O)NCc3c(F)cc(F)cc3F)cc21 [Example 102, 1-(2-fluoro-6-methoxybenzyl)-3,3-dimethyl-2-oxo-N-(2,4,6-trifluorobenzyl)indoline-6-carboxamide]	≥ 6.00	≥ 6.00	≥ 6.00	≥ 6.00	≥ 6.00
Cc1cccc(F)c1CN1C(=O)C(C)(C)c2ccc(C(=O)NCc3c(F)cc(F)cc3F)cc21 [Example 103, 1-(2-fluoro-6-methylbenzyl)-3,3-dimethyl-2-oxo-N-(2,4,6-trifluorobenzyl)indoline-6-carboxamide]	≥ 6.00	5.00 to 6.00	≥ 6.00	5.00 to 6.00	≥ 6.00
COc1cccc(CN2C(=O)C(C)(C)c3ccc(C(=O)NCc4c(F)cc(F)cc4F)cc32)c1F [Example 104, 1-(2-fluoro-3-methoxybenzyl)-3,3-dimethyl-2-oxo-N-(2,4,6-trifluorobenzyl)indoline-6-carboxamide]	5.00 to 6.00	< 5.00	5.00 to 6.00	< 5.00	5.00 to 6.00
Cc1nn(C)c(CN2C(=O)C(C)(C)c3ccc(C(=O)NCc4c(F)cc(F)cc4F)cc32)c1Br [Example 106, 1-((4-bromo-1,3-dimethyl-1H-pyrazol-5-yl)methyl)-3,3-dimethyl-2-oxo-N-(2,4,6-trifluorobenzyl)indoline-6-carboxamide]	≥ 6.00	5.00 to 6.00	≥ 6.00	5.00 to 6.00	≥ 6.00
Cc1cc(CN2C(=O)C(C)(C)c3ccc(C(=O)NCc4cc5ccccc5o4)cc32)n(C)n1 [Example 107, N-(benzofuran-2-ylmethyl)-1-((1,3-dimethyl-1H-pyrazol-5-yl)methyl)-3,3-dimethyl-2-oxoindoline-6-carboxamide]	5.00 to 6.00	5.00 to 6.00	≥ 6.00	5.00 to 6.00	5.00 to 6.00
CC1(C)C(=O)N(Cc2c(F)cccc2Br)c2cc(C(=O)NCc3c(F)cc(F)cc3F)ccc21 [Example 108, 1-(2-bromo-6-fluorobenzyl)-3,3-dimethyl-2-oxo-N-(2,4,6-trifluorobenzyl)indoline-6-carboxamide]	< 5.00	< 5.00	≥ 6.00	< 5.00	< 5.00
